According to patent publication US5977150A, “Amino acid derivatives of diaryl 1,3,4-oxadiazolone” (Bristol-Myers Squibb Company, priority 1999, dated 1999):

Columns and labels:
cortical infarct volume = experiment: Focal stroke model: permanent MCA and CCA occlusion with temporary right CCA occlusion; assay type: in vivo; settings: 10 μg/kg i.v. single bolus two hours after MCA occlusion; infarct measured 24 hours after MCAO; Wistar rat
Procedure: To determine the ability of the compounds of the present invention to reduce cell loss resulting from neuronal ischemia, a standard focal cerebral ischemia is induced by permanent occlusion of the left middle cerebral artery (MCA) and common carotid artery (CCA) with one hour occlusion of the right CCA in the Wistar rat. The surgeries are performed using the sub-temporal approach of A. Tamura, et al., J. Cereb. Blood Flow Metab., 1, pp. 53-60, (1981) and its modifications [K. Osborne, et al., J. Neurol Neurosurg. Psychiatry, 50, pp. 402-410 (1987) and S. Menzies, et al., Neurosurgery, 31, pp. 100-107, (1992).]
The compound of Example 1 was evaluated in the focal stroke model involving permanent occlusion of the left MCA (MCAO) and CCA (CCAO) and temporary occlusion of the right CCA in the Wistar rat. This procedure results in a reliably large neocortical infarct volume that is measured by means of vital dye exclusion in serial slices through the brain 24 hours after MCAO. In the present test, compounds were administered using an i.v. or i.p. route of administration two hours after occlusion.

[1] = test system: cloned mammalian (mSlo or hSlo) BK; experiment: Two-electrode voltage clamp of cloned BK-mediated outward current expressed in Xenopus oocytes; assay type: cell-based; settings: 1 μM; at least 5 oocytes; IBTX 50 nM used to isolate BK current
Procedure: (§1) The ability of the compound of Example 1 to open BK channels and increase whole-cell outward (K^+) BK-mediated currents was assessed under voltage-clamp conditions by determining their ability to increase cloned mammalian (mSlo or hSlo) BK-mediated outward current heterologously expressed in Xenopus oocytes [Butler, A., et al., Science, 261, pp. 221-224 (1993); and Dworetzky, S. I., et al., Mol. Brain Res., 27, pp.189-193 (1994)]. The two BK constructs employed represent nearly structurally identical homologous proteins, and have proven to be pharmacologically identical in our tests. To isolate BK current from native (background, non-BK) current, the specific and potent BK channel-blocking toxin iberiotoxin (IBTX) [Galvez, A., et al., J. Biol. Chem, 265, pp. 11083-11090 (1990)] was employed at a supramaximal concentration (50 nM). The relative contribution of BK channels current to total outward current was determined by subtraction of the current remaining in the presence of IBTX (non-BK current) from the current profiles obtained in all other experimental conditions (control, drug, and wash). […]

[2] = test system: non-BK native currents in the oocytes; experiment: Effect on non-BK (IBTX-insensitive) native currents in Xenopus oocytes under voltage clamp; assay type: cell-based; settings: at the tested concentration (1 μM)
Procedure: as §1

[3] = Rapid screen of prodrug hydrolysis and release of the drug in plasma; assay type: in vitro ADME; settings: fresh rat plasma, 37° C., 10 μg/mL from a 1 mg/mL PEG-400 stock, analysis 5 minutes after incubation, HPLC
Procedure: A rapid screen to determine the ability of prodrugs to hydrolyze and release the drug (compound of Example 1) is conducted as follows. A 1 mg/mL stock solution of the prodrug is prepared in distilled water or acetonitrile or PEG-400. Plasma from freshly collected rat or human blood is used in this assay. To 1 mL of plasma at 37° C. was added 10 μL of stock solution of prodrug and mixed gently. Immediately after the mixing, 100 μL of plasma was removed and quenched with 300 μL of acetontrile (Zero time sample). Samples were also obtained at 30 minutes and quenched immediately. The quenched samples were centrifuged to obtain a clear supernatant for analysis. The stock solution, T=0 and T=30 samples were analyzed by a HPLC assay that separates the drug from the prodrug. Based on the relative peak areas of prodrug and drug in these samples, different prodrugs are characterized as fast, moderate and slow release agents. For example, in this model, the compound of Example 9 was dissolved in PEG-400 at a concentration of 1 mg/mL and incubated at 10 μg/mL in fresh rat plasma at 37° C.

SMILES	reduction of cortical infarct volume vs vehicle-treated (water) control (cortical infarct volume)	BK current, % of control of IBTX-sensitive current [1]	effect on non-BK native currents in the oocytes [2]	conversion of prodrug to drug (compound of Example 1) in plasma [3]
O=c1oc(-c2ccc(C(F)(F)F)cc2)nn1Cc1cc(Cl)ccc1O [Example 1, 3-[(5-Chloro-2-hydroxyphenyl)methyl]-5-[4-(trifluoromethyl)phenyl]-1,3,4-oxadiazol-2(3H)-one]	about 18%	126 % of control	did not effect non-BK native currents	
CN[C@@H](CC(C)C)C(=O)Oc1ccc(Cl)cc1Cn1nc(-c2ccc(C(F)(F)F)cc2)oc1=O [Example 9, 3-[(5-Chloro-2-hydroxyphenyl)methyl]-5-[4-(trifluoromethyl)phenyl]-1,3,4-oxadiazol-2(3H)-one, N-Methyl (L)-Leucine ester]				conversion of the compound of Example 9 to the compound of Example 1
